Measurements published in US8871934B2, “Fluorene compound and pharmaceutical use thereof” (Japan Tobacco Inc., priority 2008, dated 2014).
Where two headings read alike, the source gives them in different places.

Molecular target: human PDHK2 (hPDHK2) (Homo sapiens (Human), UniProt Q15119)
Assay: Inhibitory action of PDHK activity in vitro (kinase reaction, residual PDH activity measured)
Format: biochemical
[1] = PDHK inhibitory activity (class symbol)
[2] = read-out: PDHK inhibitory activity IC50
[3] = PDHK inhibitory activity, class symbol of IC50

Compound	IC50 [1]	IC50 [2]	IC50 [3]
CC(CO)(CO)n1cc(-c2cc(F)cc3c2-c2ccccc2C3(O)C(F)(F)F)cn1 (single isomer, unassigned; (+)) [compound 673, (+)-2-[4-(2-fluoro-9-hydroxy-9-trifluoromethyl-9H-fluoren-4-yl)-pyrazol-1-yl]-2-methyl-propane-1,3-diol]	< 100 nM	22 nM	
Cn1cc(-c2cc(N3CCOCC3)cc3c2-c2ccccc2C3(O)C(F)(F)F)cn1 (stereo not shown) [compound 569]		44 nM	< 100 nM
OCC(CO)n1cc(-c2cc(F)cc3c2-c2ccccc2C3(O)C(F)(F)F)cn1 (single isomer, unassigned; (+)) [compound 595, (+)-2-[4-(2-fluoro-9-hydroxy-9-trifluoromethyl-9H-fluoren-4-yl)-pyrazol-1-yl]-propane-1,3-diol]		22 nM	< 100 nM
O=C(c1ccc2c(c1)C(O)(C(F)(F)F)c1ccccc1-2)C1CCCC1 (stereo not shown) [compound 109]		1320 nM	> 1000 nM
Nc1ccc2c(c1)C(O)(C(F)(F)F)c1ccccc1-2 (stereo not shown) [compound 55]		19800 nM	> 1000 nM
CC(C)(O)C(C)(C)n1cc(-c2cc(F)cc3c2-c2ccccc2C3(O)C(F)(F)F)cn1 (single isomer, unassigned) [compound 687]	< 100 nM	51 nM	
OC1(C(F)(F)F)c2ccccc2-c2c(-c3cncnc3)cc(Cl)cc21 (stereo not shown) [compound 335]		80 nM	< 100 nM
NC(=O)c1cccc2c1-c1ccccc1C2(O)C(F)(F)F (stereo not shown) [compound 33]		1810 nM	> 1000 nM
C#Cc1cc(CO)c2c(c1)C(O)(C(F)(F)F)c1ccccc1-2 (stereo not shown) [compound 641]	100 to 1000 nM	510 nM	
OC1(C(F)(F)F)c2ccccc2-c2c(F)cccc21 (stereo not shown) [compound 11]		6790 nM	> 1000 nM
O=S1(=O)CCCN1CCOc1ccc2c(c1)C(O)(C(F)(F)F)c1ccccc1-2 (stereo not shown) [compound 468]		327 nM	100 to 1000 nM
OCCCCOc1ccc2c(c1)C(O)(C(F)(F)F)c1ccccc1-2 (stereo not shown) [compound 270]		533 nM	100 to 1000 nM
NC(=O)CCCCOc1ccc2c(c1)C(O)(C(F)(F)F)c1ccccc1-2 (stereo not shown) [compound 306]		453 nM	100 to 1000 nM
CN(C(=O)c1ccc2c(c1)C(O)(C(F)(F)F)c1ccccc1-2)C1CCC1 (stereo not shown) [compound 57]		5620 nM	> 1000 nM
Cc1cc(C)c2c(c1)C(O)(C(F)(F)F)c1ccccc1-2 (stereo not shown) [compound 18]		457 nM	100 to 1000 nM
CNC(=O)c1cccc2c1-c1ccccc1C2(O)C(F)(F)F (stereo not shown) [compound 34]		33200 nM	> 1000 nM

Compound	IC50 [1]	IC50 [2]	IC50 [3]
CC(C)Cn1cc(-c2cc(C(N)=O)c3c(c2)C(O)(C(F)(F)F)c2ccccc2-3)cn1 (stereo not shown) [compound 645]	< 100 nM	37 nM	
CC(=O)NCCn1cc(-c2cccc3c2-c2ccccc2C3(O)C(F)(F)F)cn1 (stereo not shown) [compound 527]		79 nM	< 100 nM
OC1(C(F)(F)F)c2ccccc2-c2c(-c3cccnc3)cc(Cl)cc21 (stereo not shown) [compound 243]		75 nM	< 100 nM
CN(CCCCO)C(=O)c1ccc2c(c1)C(O)(C(F)(F)F)c1ccccc1-2 (stereo not shown) [compound 319]		3090 nM	> 1000 nM
OC1(C(F)(F)F)c2ccccc2-c2ccc(OCC3CCC3)cc21 (stereo not shown) [compound 255]		1080 nM	> 1000 nM
OCCn1cc(-c2cc(OCCC34CC5CC(CC(O)(C5)C3)C4)cc3c2-c2ccccc2C3(O)C(F)(F)F)cn1 (single isomer, unassigned) [compound 542]		15 nM	< 100 nM
NCc1cccc2c1-c1ccccc1C2(O)C(F)(F)F (stereo not shown) [compound 336]		> 10000 nM	> 1000 nM
COCCOC1CN(C(=O)c2ccc3c(c2)C(O)(C(F)(F)F)c2ccccc2-3)C1 (stereo not shown) [compound 106]		461 nM	100 to 1000 nM
Cc1cc(-c2cnn(CC(CO)CO)c2)c2c(c1)C(O)(C(F)(F)F)c1ccccc1-2 (single isomer, unassigned) [compound 663]	< 100 nM	18 nM	
NC(=O)COc1cc(-c2cncnc2)c2c(c1)C(O)(C(F)(F)F)c1ccccc1-2 (stereo not shown) [compound 363]		47 nM	< 100 nM
O=C(COc1ccc2c(c1)C(O)(C(F)(F)F)c1ccccc1-2)N1CCC[C@@H]1CO (stereo partly shown) [compound 382]		863 nM	100 to 1000 nM
Cn1cc(-c2cc(OCCCCO)cc3c2-c2ccccc2C3(O)C(F)(F)F)cn1 (stereo not shown) [compound 426]		24 nM	< 100 nM
CCn1cc(-c2cc(C(C)=O)c3c(c2)C(O)(C(F)(F)F)c2ccccc2-3)cn1 (stereo not shown) [compound 587]		21 nM	< 100 nM
CC(=O)c1cc(C(=O)N2CCC2)cc2c1-c1ccccc1C2(O)C(F)(F)F (stereo not shown) [compound 122]		49 nM	< 100 nM
O=C(O)C1CCCN1C(=O)c1ccc2c(c1)C(O)(C(F)(F)F)c1ccccc1-2 (stereo not shown) [compound 168]		> 10000 nM	> 1000 nM
COC(=O)C1CN(C(=O)c2ccc3c(c2)C(O)(C(F)(F)F)c2ccccc2-3)C1 (stereo not shown) [compound 120]		174 nM	100 to 1000 nM
